From ChEMBL document CHEMBL5620408, “Discovery of novel diarypyrimidine derivatives bearing six-membered non-aromatic heterocycles as potent HIV-1 NNRTIs with improved anti-resistance and drug-like profiles” (Eur J Med Chem, 2023)

Experiments:
[1] = Cytotoxicity against human MT4 cells assessed as reduction in cell viability by MTT assay; format: toxicity, cell-based
[2] = tested on: Human immunodeficiency virus 1; experiment: Antiviral activity against HIV1 harboring L100I mutant infected in MT4 cells; format: functional, organism-based; conditions: Human immunodeficiency virus 1, MT4
[3] = tested on: Human immunodeficiency virus 1; experiment: Antiviral activity against HIV1 harboring Y188L mutant infected in MT4 cells; format: functional, organism-based; conditions: Human immunodeficiency virus 1, MT4
[4] = tested on: Human immunodeficiency virus 1; experiment: Antiviral activity against HIV1 NL4-3 infected in MT4 cells; format: functional, organism-based; conditions: Human immunodeficiency virus 1, NL4-3, MT4
[5] = tested on: MT4; experiment: Cytotoxicity against human MT4 cells; format: toxicity, cell-based
[6] = Selectivity index, ratio of CC50 for human MT4 cells to EC50 for antiviral activity against HIV IIIB
[7] = biological target: Human immunodeficiency virus type 1 reverse transcriptase (Human immunodeficiency virus 1, UniProt Q72547); experiment: Inhibition of wild type HIV-1 reverse transcriptase
[8] = tested on: Human immunodeficiency virus 1; experiment: microbe, parasite or virus in culture; conditions: Human immunodeficiency virus 1, IIIB, MT4
Description: Antiviral activity against HIV1 IIIB infected in MT-4 cells assessed as viral induced cytopathic effect by MTT assay

[9] = tested on: Human immunodeficiency virus 1; experiment: microbe, parasite or virus in culture; conditions: Human immunodeficiency virus 1, RES056, MT4
Description: Antiviral activity against HIV1 RES056 infected in MT-4 cells assessed as viral induced cytopathic effect by MTT assay

[10] = Selectivity index, ratio of CC50 for human MT4 cells to EC50 for antiviral activity against HIV RES056
[11] = tested on: Human immunodeficiency virus 1; experiment: Antiviral activity against HIV1 harboring K103N mutant infected in MT4 cells; format: functional, organism-based; conditions: Human immunodeficiency virus 1, MT4
[12] = tested on: Human immunodeficiency virus 1; experiment: Antiviral activity against HIV1 harboring F227L/V106A double mutant infected in MT4 cells; format: functional, organism-based; conditions: Human immunodeficiency virus 1, MT4
[13] = tested on: Human immunodeficiency virus 1; experiment: Antiviral activity against HIV1 harboring Y181C mutant infected in MT4 cells; format: functional, organism-based; conditions: Human immunodeficiency virus 1, MT4
[14] = tested on: Human immunodeficiency virus 1; experiment: Antiviral activity against HIV1 harboring E138K mutant infected in MT4 cells; format: functional, organism-based; conditions: Human immunodeficiency virus 1, MT4

Compound: O=C1Nc2ccc(Cl)cc2[C@@](C#CC2CC2)(C(F)(F)F)O1 [EFAVIRENZ]
- CC50 [1]: > 6330 nM
- EC50 [2]: 53 nM
- EC50 [3]: 250 nM

Compound: Cc1cc(C#N)cc(C)c1Oc1ccnc(Nc2ccc(N3CCN(S(=O)(=O)C4CC4)CC3)c(F)c2)n1
- EC50 [4]: 8.32 nM
- Activity [5]: Non-Toxic
- CC50 [1]: > 239000 nM
- selectivity ratio [6]: > 40600
- IC50 [7]: 77 nM
- EC50 [8]: 6 nM
- EC50 [9]: > 239000 nM

Compound: Cc1cc(C#N)cc(C)c1Oc1ccnc(Nc2ccc(N3CCN(S(=O)(=O)C(C)C)CC3)c(F)c2)n1
- EC50 [4]: 24.6 nM
- Activity [5]: Non-Toxic
- CC50 [1]: 192000 nM
- selectivity ratio [6]: 24500
- selectivity ratio [10]: < 1
- IC50 [7]: 140 nM
- EC50 [8]: 8 nM
- EC50 [9]: > 192000 nM

Compound: Cc1cc(/C=C/C#N)cc(C)c1Nc1ccnc(Nc2ccc(C#N)cc2)n1 [RILPIVIRINE]
- EC50 [4]: 0.6 nM
- Activity [5]: Non-Toxic
- IC50 [7]: 430 nM

Compound: Cc1cc(/C=C/C#N)cc(C)c1Oc1ccnc(Nc2ccc(N3CCN(S(=O)(=O)C4CC4)CC3)cc2)n1
- EC50 [4]: 6.12 nM
- Activity [5]: Non-Toxic
- CC50 [1]: 216000 nM
- selectivity ratio [6]: 37300
- selectivity ratio [10]: < 1
- IC50 [7]: 83 nM
- EC50 [8]: 6 nM
- EC50 [9]: > 216000 nM

Compound: Cc1cc(C#N)cc(C)c1Oc1nc(Nc2ccc(C#N)cc2)nc(N)c1Br [ETRAVIRINE]
- CC50 [1]: > 4590 nM
- EC50 [11]: 1 nM
- EC50 [12]: 25 nM
- EC50 [9]: 76 nM

Compound: Cc1ccnc2c1NC(=O)c1cccnc1N2C1CC1 [NEVIRAPINE]
- CC50 [1]: > 15000 nM
- EC50 [11]: 6040 nM
- EC50 [13]: 7400 nM
- EC50 [3]: > 15000 nM
- EC50 [12]: > 15000 nM
- EC50 [9]: > 15000 nM

Compound: Cc1cc(/C=C/C#N)cc(C)c1Oc1ccnc(Nc2ccc(N3CCN(S(=O)(=O)C(C)C)CC3)cc2)n1
- EC50 [4]: 25.5 nM
- Activity [5]: Non-Toxic
- CC50 [1]: 1730 nM
- selectivity ratio [6]: 193
- selectivity ratio [10]: < 1
- IC50 [7]: 130 nM
- EC50 [8]: 9 nM
- EC50 [9]: > 1730 nM

Compound: Cc1cn([C@H]2C[C@H](N=[N+]=[N-])[C@@H](CO)O2)c(=O)[nH]c1=O [ZIDOVUDINE]
- EC50 [4]: 15.3 nM
- Activity [5]: Non-Toxic
- CC50 [1]: > 7480 nM
- EC50 [9]: 37 nM

Compound: Cc1cc(/C=C/C#N)cc(C)c1Oc1ccnc(Nc2ccc(C3CCN(S(=O)(=O)C(C)C)CC3)cc2)n1
- EC50 [4]: 11.9 nM
- Activity [5]: Non-Toxic
- CC50 [1]: 2380 nM
- selectivity ratio [6]: 298
- selectivity ratio [10]: < 1
- IC50 [7]: 130 nM
- EC50 [8]: 8 nM
- EC50 [9]: > 2380 nM

Compound: Cc1cc(/C=C/C#N)cc(C)c1Oc1ccnc(Nc2ccc(CN3CCN(S(C)(=O)=O)CC3)cc2)n1
- EC50 [4]: 0.79 nM
- Activity [5]: Non-Toxic
- EC50 [2]: 14 nM
- EC50 [11]: 4 nM
- EC50 [3]: 1320 nM
- EC50 [14]: 9 nM
- EC50 [12]: 210 nM
- IC50 [7]: 33 nM

Compound: Cc1cc(/C=C/C#N)cc(C)c1Oc1ccnc(Nc2ccc(C3CCN(S(=O)(=O)N(C)C)CC3)cc2)n1
- EC50 [4]: 24.8 nM
- Activity [5]: Non-Toxic
- CC50 [1]: 6270 nM
- selectivity ratio [6]: 686
- selectivity ratio [10]: < 1
- IC50 [7]: 100 nM
- EC50 [8]: 9 nM
- EC50 [9]: > 6270 nM

Compound: CCS(=O)(=O)N1CCC(c2ccc(Nc3nccc(Oc4c(C)cc(/C=C/C#N)cc4C)n3)cc2)CC1
- EC50 [4]: 5.7 nM
- Activity [5]: Non-Toxic
- CC50 [1]: > 38600 nM
- selectivity ratio [6]: > 7360
- IC50 [7]: 71 nM
- EC50 [8]: 5 nM
- EC50 [9]: > 38600 nM

Compound: Cc1cc(/C=C/C#N)cc(C)c1Oc1ccnc(Nc2ccc(N3CCN(S(=O)(=O)N(C)C)CC3)cc2)n1
- EC50 [4]: 28.9 nM
- Activity [5]: Non-Toxic
- CC50 [1]: 78100 nM
- selectivity ratio [6]: 10200
- selectivity ratio [10]: < 1
- IC50 [7]: 140 nM
- EC50 [8]: 8 nM
- EC50 [9]: > 78100 nM

Compound: Cc1cc(C#N)cc(C)c1Oc1ccnc(Nc2ccc(N3CCN(S(C)(=O)=O)CC3)c(F)c2)n1
- EC50 [4]: 5.74 nM
- Activity [5]: Non-Toxic
- CC50 [1]: 7750 nM
- selectivity ratio [6]: 1240
- selectivity ratio [10]: < 1
- IC50 [7]: 43 nM
- EC50 [8]: 6 nM
- EC50 [9]: > 7750 nM
